Measurements published in PubChem BioAssay (NCI).
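Exposure lasted 48 hours, with cells grown in 96-well plates and compounds tested at five concentrations. Abbreviation: GI50, concentration required for 50% inhibition of growth. Definition used: TGI = concentration required for complete inhibition of growth.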

Key:
Test in all cases: DTP human tumour cell line panel, 48 h
[1] = tested on: MDA-MB-231 breast
[2] = tested on: MALME-3M melanoma
[3] = tested on: IGROV1 ovarian
[4] = tested on: UACC-257 melanoma
[5] = tested on: CAKI-1 renal
[6] = tested on: UO-31 renal
[7] = tested on: NCI/ADR-RES ovarian
[8] = tested on: SF-295 CNS
[9] = tested on: RXF 393 renal
[10] = tested on: CCRF-CEM leukemia
[11] = tested on: NCI-H226 lung
[12] = tested on: LOX IMVI melanoma
[13] = tested on: SR leukemia
[14] = tested on: MDA-N
[15] = tested on: HS 578T breast

SMILES	TGI [1] [µM]	TGI [2] [µM]	TGI [3] [µM]	TGI [4] [µM]	TGI [5] [µM]	TGI [6] [µM]	TGI [7] [µM]	TGI [8] [µM]	TGI [9] [µM]	TGI [10] [µM]	TGI [11] [µM]	TGI [12] [µM]	TGI [13] [µM]	TGI [14] [µM]	TGI [15] [µM]	GI50 [3] [µM]	GI50 [4] [µM]
CN(C)CCNC(=O)c1ccc(NCCCN(C)CCCNc2ccc(C(=O)NCCN(C)C)c3[nH]c4ccccc4c(=O)c23)c2c(=O)c3ccccc3[nH]c12	0.309	0.302	2.07	1.26	2.59	1.9	16	1.31	1.15	0.406	0.609	0.179	0.532	–	–	–	–
N#CN/C(N)=N/C/N=C(\N)NC#N	–	> 100	> 100	> 100	> 100	> 100	–	> 100	> 100	> 100	> 100	–	93.5	–	–	–	–
CN1CN(c2ccccc2)C2(CCN(CC(C)(c3ccc(F)cc3)C3OCCCO3)CC2)C1=O (configuration not stated)	60.8	30	38.9	31.5	65.3	11	26.9	33.4	39.5	45.9	42.7	31.8	30.4	31.6	–	–	–
O=C1CC(c2ccccc2)C2(C(=O)NC(=S)NC2=O)C(c2ccccc2)C1 (configuration not stated)	> 75	> 75	> 75	> 75	> 75	> 75	> 75	> 75	> 75	> 75	> 75	> 75	> 75	> 75	–	–	–
O=C(O)Cc1ccc(Nc2nc3cc(C(F)(F)F)ccc3nc2C(=O)O)cc1	–	> 100	> 100	> 100	> 100	> 100	> 100	> 100	> 100	–	> 100	> 100	> 100	> 100	> 100	–	–
CCOC(=O)c1[nH]c(Br)c(-c2ccc(OC)c(OC)c2)c1Br	–	–	11.9	22.3	–	9.96	> 100	0.0356	0.0424	–	1.65	–	13.4	–	–	0.0494	10
CC(=O)OC12C3C4C1C1C2C3C41OC(C)=O (configuration not stated)	> 100	–	> 100	> 100	> 100	> 100	> 100	> 100	> 100	> 100	> 100	> 100	> 100	–	–	–	–
Brc1ccc(C[P+]2(c3ccccc3)CCCCC2)cc1	–	> 100	> 100	73.8	–	> 100	–	> 100	> 100	> 100	> 100	> 100	> 100	–	–	–	–
NC(=S)/N=C(/c1nc2ccc(Cl)cc2[nH]c1=O)C(O)c1ccccc1Cl (configuration not stated)	–	> 100	> 100	> 100	–	> 100	–	> 100	> 100	> 100	> 100	> 100	–	–	–	–	–
Cc1nc(CC#N)n[nH]1	> 100	–	> 100	> 100	–	> 100	> 100	> 100	> 100	> 100	–	> 100	> 100	> 100	–	–	–
c1ccc(C(NCC2CCO2)(c2ccccc2)c2ccccc2)cc1 (configuration not stated)	70.1	35.1	32.7	39.5	55.2	25.3	28.9	28.9	35	> 100	26.6	95.5	> 100	54.5	–	–	–
CS(=O)(=O)c1nc(-c2cc3c(c(S(C)(=O)=O)n2)CCCC3)cc2c1CCCCC2	> 100	–	54.3	> 100	> 100	–	> 100	> 100	> 100	> 100	> 100	–	–	> 100	–	–	–
CC(C)(C)OC(=O)N(CCCCNC(=O)OCc1ccccc1)CCCNC(=O)OCc1ccccc1	> 100	–	> 100	> 100	–	–	> 100	> 100	> 100	> 100	> 100	–	> 100	–	> 100	–	–
[N-]=[N+]=NC(c1cn(C2CC(O)C(CO)O2)c(=O)[nH]c1=O)C(Br)Br (configuration not stated)	–	> 100	> 100	–	> 100	> 100	–	> 100	> 100	> 100	> 100	> 100	> 100	–	–	–	–
CN(C(=O)C12C3C4C5C3C1(C(=O)C13C6C7C8C6C1C8C73)C5C42)C(C)(C)C (configuration not stated)	–	> 50	> 50	> 50	> 50	> 50	–	> 50	> 50	> 37.9	> 50	> 29.7	> 50	–	–	–	–
O=CNNC(=O)Nc1cccc2ccccc12	> 100	> 100	> 100	> 100	–	> 100	> 100	> 100	> 100	> 100	> 100	–	> 100	–	> 100	–	–
O=c1cc(CO)oc2c3c(cc(O)c12)OCC(COC1OC(CO)C(O)C(O)C1O)=CC3 (configuration not stated)	–	–	> 100	> 100	> 100	> 100	–	> 100	> 100	> 100	> 100	> 100	> 100	–	–	–	–
COc1ccc(C(=O)O[C@H]2[C@@H]3C=CO[C@@H](OC4OC(CO)C(O)C(O)C4O)[C@@H]3[C@@]3(CO)O[C@@H]23)cc1O (some centres not stated)	–	> 100	> 100	> 100	> 100	> 100	–	> 100	> 100	> 100	–	> 100	–	–	–	–	–
O=C(/C=C/c1ccccc1)CSc1ncn[nH]1	–	> 100	> 100	> 100	> 100	> 100	> 100	> 100	> 100	> 100	> 100	–	> 100	> 100	–	–	–
CCN(CC)CCCNc1ccc2nc(C)n3c4ccc(O)cc4c(=O)c1c23	–	22.8	9.79	29	23.6	19.3	29.6	19.6	15	46.7	21.4	3.71	–	20.6	29	–	–
COc1ccc(C(c2c(O)c3ccccc3n(-c3ccccc3)c2=O)c2c(O)c3ccccc3n(-c3ccccc3)c2=O)cc1	–	> 100	–	–	> 100	> 100	–	–	> 100	> 100	> 100	> 100	> 100	–	–	–	–
COc1ccc(N=NC(C(=O)c2ccccc2)C(=O)c2ccccc2)cc1	–	97	> 100	> 100	> 100	51.7	–	> 100	–	58.2	29.9	47	–	–	–	–	–
CCOc1ccc2[nH]c3c(C)c4ccncc4c(C)c3c2c1	–	2.83	2.42	3.24	3.06	13.9	–	2.19	–	> 100	4.24	2.49	–	–	–	–	–
COC(=O)CCC1=C(CC(=O)OC)C(C)(OC)N=C1NC(=O)OCc1ccccc1 (configuration not stated)	> 100	> 100	> 100	> 100	> 100	> 100	> 100	> 100	> 100	> 100	> 100	> 100	> 100	–	–	–	–
CC1(C)OC2[C@@H](CO[C@@]3([C@@H](O)CCO)OC(C)(C)O[C@@H]23)O1 (some centres not stated)	> 100	–	> 100	> 100	> 100	> 100	> 100	> 100	> 100	> 100	> 100	> 100	> 100	> 100	–	–	–
CC1=NC2=Nc3nc(C)cc[n+]3CN2C=C1	> 100	> 100	> 100	> 100	> 100	> 100	> 100	> 100	> 100	–	> 100	> 100	–	–	> 100	–	–
NC1=C(NC(=O)Cc2ccccc2F)C(=O)c2ccccc2C1=O	–	50.9	> 100	> 100	> 100	> 100	–	> 100	56.5	> 100	> 100	–	–	–	–	–	–
CCOC(=O)c1c(N=P(c2ccccc2)(c2ccccc2)c2ccccc2)nnc(-c2ccccc2)c1-c1ccccc1	> 100	> 100	> 100	> 100	–	> 100	> 100	> 100	> 100	> 100	> 100	> 100	> 100	> 100	–	–	–
CS(=O)(=O)OCCN(CCOS(C)(=O)=O)c1ccc(C=Nc2cccc(Cl)c2)cc1	48.6	33.2	> 87.8	21.1	1.56	> 100	27.3	28.9	> 100	> 100	11	15.2	0.307	–	98.9	–	–
